Laboratory results from US8507469B2, “Azetidin compounds suitable for treating disorders that respond to modulation of the serotonin 5-HT6 receptor” (Abbott GmbH & Co. KG, priority 2007, dated 2013).
pKd, pKi: −log10 of the molar value. Structures can show the parent of a compound that is named as a salt.

Columns and labels:
dopamine D2 receptor = target: T1, dopamine D2 receptor (Homo sapiens, UniProt P14416); assay: Dopamine D2 receptor binding assay (displacement of [125I]-iodospiperone); conditions: for pKi: HEK293 membranes, 0.01 nM [125I]-iodospiperone
T1 construct: expressed in transfected cells
Description: (§1) Cells from stable clonal cell lines expressing the corresponding receptor (5-HT6, 1-adrenergic, dopamine D2 or histamine H1 receptors) were washed with PBS (w/o Ca^++, Mg^++) and harvested in PBS with 0.02% EDTA. The cells were collected by centrifugation at 500 g for 10 min. at 4° C., washed with PBS and centrifuged (500 g, 10 min. 4° C.). The pellets were stored at −80° C. until use. For membrane preparation, the thawed cell pellet was resuspended in ice-cold sucrose buffer (0.25 M sucrose, 10 mM Hepes (pH 7.4), 1 mM Phenylmethylsulfonyl fluoride (PMSF) in DMSO, […] Pepstatin-A, 3 mM EDTA, 0.025% Bacitracin) and homogenized with a Branson Sonifier W-250 (Settings: Timer 4; Output Control 3; Duty Cycle constant; 2 to 3 cycles). Cell disruption was checked with the aid of a microscope. Remaining unbroken cells were pelleted at 1.000 g for 10 min. at 4° C. The sucrose buffer supernatant was then centrifuged at 60.000 g for 1 h at 4° C. (Beckman Ultrazentrifuge XL 80). The pellet was resuspended in 30 ml ice-cold Tris buffer (20 mM TRIS (pH 7.4), […] Pepstatin A, 0.1 mM PMSF, 3 mM EDTA) by pipetting through a 10 ml serological pipet and centrifuged for 1 h at 4° C. at 60.000 g. A final resuspension was performed in a small volume of ice-cold Tris buffer (see above) by pressing through a serological pipet followed by ultrasonic treatment with a Branson Sonifier W-250 (Settings: Timer 1; Output Control 3; Duty Cycle constant; 1 cycle). Protein concentration was determined (BCA-Kit; Pierce) and aliquots stored at −80° C. or in liquid nitrogen for long-term storage.
(§2) All receptor binding experiments were carried out in the corresponding assay buffer in a total volume of 200 μl in the presence of various concentrations of test compound (10^−5 M to 10^−9 M, tenfold serial dilution, duplicate determinations). The assays were terminated by filtration on polyethylenimine (PEI 0.1% or 0.3%) presoaked Packard Unifilter Plates (GF/C or GF/B) with a Tomtec MachIII U 96well-plate harvester. After the plates had been dried for 2 h at 55° C. in a drying chamber scintillation cocktail (BetaPlate Scint; PerkinElmer) was added. Radioactivity was measured in a Microbeta Trilux two hours after the addition of the scintillation mixture. Data derived from liquid scintillation counting were analysed by iterative non-linear regression analysis with the use of the Statistical Analysis System (SAS): a program similar to “LIGAND” as described by Munson and Rodbard (Analytical Biochemistry 107, 220-239 (1980).
HEK293 cells stably expressing the dopamine D2 receptor (NCBI Reference Sequence NM_000795) were cultured in RPMI1640 medium supplemented with 25 mM HEPES, 10% fetal calf serum and 1-2 mM glutamine. The membrane preparation was performed as described in section 1. […] On the day of the assay, the membranes were thawed, diluted in assay buffer (50 mM Tris-HCl, 120 mM NaCl, 5 mM MgCl2, 5 mM KCl, 1.5 mM CaCl2, pH 7.4) to a concentration of 15 μg protein/assay and homogenized by gentle vortexing. For inhibition studies, 0.01 nM [^125I]-iodospiperone (PerkinElmer Life Sciences, NEX284) was incubated in the presence of various concentrations of test compound in assay buffer. Non-specific binding was defined with 1 μM haloperidol. The binding reaction was carried out for 1 h at room temperature and terminated by filtration on Packard Unifilter GF/B (0.1% PEI) plates, followed by 6 wash cycles with an ice-cold 7% polyethylenglycol solution.
(§3) Data derived from liquid scintillation counting were analyzed by iterative non-linear regression analysis with the use of the Statistical Analysis System (SAS): a program similar to “LIGAND” as described by Munson and Rodbard (Anal. Biochem. 1980, 107, 220-239). Fitting was performed according to formulae described by Feldman (Anal. Biochem. 1972, 48, 317-338). IC50, nH and Ki values were expressed as geometrical mean.

h-5-HT6 receptor = target: T2, h-5-HT6 receptor (Homo sapiens, UniProt P50406); assay: 5-HT6 receptor binding assay (displacement of [3H]-LSD); conditions: HEK293 membranes, 1 nM [3H]-LSD
T2 construct: expressed in transfected cells
Description: as §1, §2
HEK293 cells stably expressing the h-5-HT6 receptor (NCBI Reference Sequence XM 001435) were cultured in RPMI1640 medium supplemented with 25 mM HEPES, 10% fetal calf serum and 1-2 mM glutamine. The membrane preparation was performed as described in section 1. […] Non-specific binding was defined with 1 μM methiothepin. The binding reaction was carried out for 3.5 h at room temperature. During the incubation, the plates were shaken on a plate shaker at 100 rpm and terminated by filtration on Packard Unifilter GF/C (0.1% PEI) plates, followed by 2 wash cycles with ice-cold 50 mM Tris-HCl, 5 mM CaCl2.
as §3

α1-adrenergic receptor = target: T3, α1-adrenergic receptor (Homo sapiens, UniProt P35348); assay: α1-adrenergic receptor binding assay (displacement of [3H]-prazosine); conditions: CHO-K1 membranes, 0.1 nM [3H]-prazosine
T3 construct: expressed in transfected cells
Description: as §1, §2
CHO-K1 cells stably expressing the 1-adrenergic receptor (NCBI Reference Sequence NM_033303) were cultured in RPMI1640 medium supplemented with 25 mM HEPES, 10% fetal calf serum and 1-2 mM glutamine. The membrane preparation was performed as described in section 1. […] On the day of the assay, the membranes were thawed, diluted in assay buffer (50 mM Tris-HCl, pH 7.4) to a concentration of 4 μg protein/assay and homogenized by gentle vortexing. […] Non-specific binding was defined with 1 μM phentolamine. The binding reaction was carried out for 1 h at room temperature and terminated by filtration on Packard Unifilter GF/C (0.1% PEI) plates, followed by 3 wash cycles with ice-cold assay buffer.
as §3

histamine H1 receptor = histamine H1 receptor (Homo sapiens, UniProt P35367); assay: H1 receptor binding assay (displacement of [3H]-pyrilamine); conditions: CHO-K1 membranes, 1 nM [3H]-pyrilamine
Description: as §1, §2
CHO-K1 cells stably expressing the histamine H1 receptor (Euroscreen-ES-390-C, NCBI Reference Sequence NM_000861) were cultured in RPMI1640 medium supplemented with 25 mM HEPES, 10% fetal calf serum and 1-2 mM glutamine. The membrane preparation was performed as described in section 1. […] On the day of the assay, the membranes were thawed, diluted in assay buffer (50 mM Na2HPO4, 50 mM KH2PO4, pH 7.4) to a concentration of 6 μg protein/assay and homogenized by gentle vortexing. […] The binding reaction was carried out for 50 minutes at room temperature and terminated by filtration on Packard Unifilter GF/C (0.3% PEI) plates, followed by 2 wash cycles with ice-cold assay buffer.
as §3

T3 sequence (P35348 1-475 isoform P35348-2): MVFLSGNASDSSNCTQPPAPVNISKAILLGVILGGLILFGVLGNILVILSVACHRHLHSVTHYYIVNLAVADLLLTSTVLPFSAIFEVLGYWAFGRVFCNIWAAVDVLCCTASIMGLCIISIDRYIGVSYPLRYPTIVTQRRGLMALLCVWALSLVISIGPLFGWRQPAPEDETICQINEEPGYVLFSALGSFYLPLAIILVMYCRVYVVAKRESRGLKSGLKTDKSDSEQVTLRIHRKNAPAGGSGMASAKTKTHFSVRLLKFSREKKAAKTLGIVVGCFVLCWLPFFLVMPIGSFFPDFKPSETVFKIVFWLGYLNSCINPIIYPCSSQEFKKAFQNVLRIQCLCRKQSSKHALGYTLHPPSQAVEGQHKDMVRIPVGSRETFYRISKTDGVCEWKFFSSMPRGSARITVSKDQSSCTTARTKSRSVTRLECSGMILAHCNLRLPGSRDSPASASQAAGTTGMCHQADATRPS
T1 sequence (P14416 whole entry): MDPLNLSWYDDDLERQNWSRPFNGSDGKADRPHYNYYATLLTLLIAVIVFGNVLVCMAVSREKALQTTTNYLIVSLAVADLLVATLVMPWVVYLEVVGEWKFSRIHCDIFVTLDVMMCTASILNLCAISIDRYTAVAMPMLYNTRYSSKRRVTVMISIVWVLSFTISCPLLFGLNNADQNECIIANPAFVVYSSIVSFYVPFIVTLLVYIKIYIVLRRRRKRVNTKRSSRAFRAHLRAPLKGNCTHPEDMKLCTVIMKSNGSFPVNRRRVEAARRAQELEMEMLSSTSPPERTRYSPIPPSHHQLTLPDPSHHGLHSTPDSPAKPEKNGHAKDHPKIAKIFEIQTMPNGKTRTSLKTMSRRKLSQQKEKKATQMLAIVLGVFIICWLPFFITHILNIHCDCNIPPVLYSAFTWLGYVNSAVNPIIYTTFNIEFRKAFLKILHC
Sequence of histamine H1 receptor (P35367 whole entry): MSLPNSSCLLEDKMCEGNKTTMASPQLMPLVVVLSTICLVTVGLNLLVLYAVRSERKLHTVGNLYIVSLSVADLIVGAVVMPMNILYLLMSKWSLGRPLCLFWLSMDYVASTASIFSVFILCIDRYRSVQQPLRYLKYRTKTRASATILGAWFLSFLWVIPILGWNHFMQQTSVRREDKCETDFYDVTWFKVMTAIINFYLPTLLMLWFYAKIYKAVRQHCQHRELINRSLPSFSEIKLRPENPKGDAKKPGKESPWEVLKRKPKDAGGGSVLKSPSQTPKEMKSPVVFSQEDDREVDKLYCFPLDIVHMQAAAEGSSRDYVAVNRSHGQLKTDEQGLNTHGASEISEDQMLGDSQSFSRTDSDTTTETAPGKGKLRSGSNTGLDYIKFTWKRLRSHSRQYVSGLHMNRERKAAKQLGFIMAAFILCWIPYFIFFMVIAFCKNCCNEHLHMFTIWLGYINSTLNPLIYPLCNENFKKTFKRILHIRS
T2 sequence (P50406 whole entry): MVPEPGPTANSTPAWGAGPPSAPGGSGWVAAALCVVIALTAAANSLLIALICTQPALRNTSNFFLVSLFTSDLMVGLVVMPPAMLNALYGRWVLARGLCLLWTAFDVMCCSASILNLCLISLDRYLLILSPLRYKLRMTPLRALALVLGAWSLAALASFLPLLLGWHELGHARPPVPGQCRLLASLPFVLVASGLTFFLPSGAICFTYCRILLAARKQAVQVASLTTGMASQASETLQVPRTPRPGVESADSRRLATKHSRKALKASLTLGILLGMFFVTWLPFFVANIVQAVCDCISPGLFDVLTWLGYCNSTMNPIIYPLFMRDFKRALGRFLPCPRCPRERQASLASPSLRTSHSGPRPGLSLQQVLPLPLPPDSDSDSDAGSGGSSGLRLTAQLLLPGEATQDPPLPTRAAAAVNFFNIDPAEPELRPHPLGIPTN

Compound | pKi (dopamine D2 receptor) | pKi (h-5-HT6 receptor) | pKi (α1-adrenergic receptor) | pKi (histamine H1 receptor) | pKd (dopamine D2 receptor; saturation binding experiments, HEK293 D2 membranes, read-out: KD of radioligand)
O=S(=O)(c1ccccc1)N1CCc2cc(C3CNC3)ccc21 [compound 7, 5-azetidin-3-yl-1-benzenesulfonyl-2,3-dihydro-1H-indole, hydrochloride] | < 5.00 | > 8.30 | < 6.00 | < 6.00 | –
O=S(=O)(c1cccc(C(F)(F)F)c1)n1ccc2cc(C3CNC3)ccc21 [compound 19, 5-azetidin-3-yl-1-(3-trifluoromethyl-benzenesulfonyl)-1H-indole, hydrochloride] | < 5.00 | > 8.30 | < 6.00 | < 5.00 | –
O=S(=O)(c1ccccc1OC(F)(F)F)n1ccc2cc(C3CNC3)ccc21 [compound 23, 5-Azetidin-3-yl-1-(2-trifluoromethoxybenzenesulfonyl)-1H-indole] | < 5.00 | > 8.30 | < 6.00 | < 6.00 | –
O=S(=O)(c1ccccc1)n1ccc2cc(C3CNC3)ccc21 [compound 2, 5-azetidin-3-yl-1-benzenesulfonyl-1H-indole, hydrochloride] | < 5.00 | > 8.30 | < 6.00 | < 5.00 | –
O=S(=O)(c1ccccc1)n1ccc2cc(C3CNC3)cnc21 [compound 46, 5-Azetidin-3-yl-1-benzenesulfonyl-1H-pyrrolo[2,3-b]pyridine, formic acid salt] | < 5.00 | > 8.00 | < 5.00 | < 5.00 | –
iodospiperone [[^125I]-iodospiperone, reference compound] | – | – | – | – | 9.66
CCCN1CC(c2ccc3c(ccn3S(=O)(=O)c3cccc(C(F)(F)F)c3)c2)C1 [compound 25, 5-(1-propyl-azetidin-3-yl)-1-(3-trifluoromethylbenzenesulfonyl)-1H-indole, hydrochloride] | < 6.00 | > 8.30 | < 6.60 | < 6.00 | –
CCCN1CC(c2ccc3c(ccn3S(=O)(=O)c3cccc(OC(F)(F)F)c3)c2)C1 [compound 26, 5-(1-Propylazetidin-3-yl)-1-(3-trifluoromethoxybenzenesulfonyl)-1H-indole, hydrochloride] | < 6.00 | > 8.30 | < 6.60 | < 6.00 | –
CCCN1CC(c2ccc3c(ccn3S(=O)(=O)c3ccc(-c4cnco4)cc3)c2)C1 [compound 6, 1-(4-oxazol-5-yl-benzenesulfonyl)-5-(1-propylazetidin-3-yl)-1H-indole, hydrochloride] | < 6.00 | > 6.60 | – | – | –
CN1CC(c2ccc3c(ccn3S(=O)(=O)c3ccccc3)c2)C1 [compound 29, 5-(1-Methylazetidin-3-yl)-1-benzenesulfonyl-1H-indole, hydrochloride] | < 6.00 | > 8.00 | – | – | –
O=S(=O)(c1cccnc1)n1cc(C2CNC2)c2ccccc21 [compound 24, Azetidin-3-yl-1-(pyridine-3-sulfonyl)-1H-indole, hydrochloride] | < 5.00 | > 8.00 | – | – | –
O=S(=O)(c1ccc(-c2cnco2)cc1)N1CCc2cc(C3CNC3)ccc21 [compound 8, 5-azetidin-3-yl-1-(4-oxazol-5-yl-benzenesulfonyl)-2,3-dihydro-1H-indole] | < 5.00 | > 6.60 | – | – | –
CCN1CC(c2ccc3c(ccn3S(=O)(=O)c3ccccc3)c2)C1 [compound 28, 5-(1-Ethylazetidin-3-yl)-1-benzenesulfonyl-1H-indole, hydrochloride] | < 6.00 | > 8.00 | – | – | –
O=S(=O)(c1cccc(OC(F)F)c1)n1ccc2cc(C3CNC3)ccc21 [compound 21, 5-Azetidin-3-yl-1-(3-difluoromethoxybenzenesulfonyl)-1H-indole, hydrochloride] | < 6.00 | > 8.30 | < 6.00 | < 5.00 | –

Continued, values first:

pKi (dopamine D2 receptor) | pKi (h-5-HT6 receptor) | pKi (α1-adrenergic receptor) | pKi (histamine H1 receptor) | pKd (dopamine D2 receptor; saturation binding experiments, HEK293 D2 membranes, read-out: KD of radioligand) | Compound
< 6.00 | > 6.60 | – | – | – | O=S(=O)(c1ccc(-c2cnco2)cc1)n1ccc2cc(C3CNC3)ccc21 [compound 3, 5-azetidin-3-yl-1-(4-oxazol-5-yl-benzenesulfonyl)-1H-indole, hydrochloride]
< 6.00 | > 8.30 | < 6.00 | < 6.00 | – | O=S(=O)(c1cccc(C(F)(F)F)c1)N1CCc2cc(C3CNC3)ccc21 [compound 30, 5-Azetidin-3-yl-1-(3-trifluoromethyl-benzenesulfonyl)-2,3-dihydro-1H-indole, hydrochloride]
< 6.00 | > 8.30 | < 6.60 | < 6.00 | – | CCCN1CC(c2ccc3c(ccn3S(=O)(=O)c3ccccc3)c2)C1 [compound 5, 1-benzenesulfonyl-5-(1-propylazetidin-3-yl)-1H-indole, hydrochloride]
< 6.00 | > 8.30 | < 6.60 | < 6.00 | – | CCCN1CC(c2ccc3c(ccn3S(=O)(=O)c3cccc(OC(F)F)c3)c2)C1 [compound 27, 5-(1-Propylazetidin-3-yl)-1-(3-difluoromethoxybenzenesulfonyl)-1H-indole, hydrochloride]
< 6.00 | > 7.30 | < 6.60 | – | – | CCCN1CC(c2ccc3c(ccn3S(=O)(=O)c3ccc(OC(F)F)cc3)c2)C1 [compound 4, 1-(4-Difluoromethoxy-benzenesulfonyl)-5-(1-propyl-azetidin-3-yl)-1H-indole, hydrochloride]
< 6.00 | > 8.30 | < 6.00 | < 5.00 | – | O=S(=O)(c1cccc(OC(F)(F)F)c1)n1ccc2cc(C3CNC3)ccc21 [compound 20, 5-Azetidin-3-yl-1-(3-trifluoromethoxybenzenesulfonyl)-1H-indole, hydrochloride]
